Laboratory results published in patent US12180221B2, “Compounds and uses thereof” (JANSSEN PHARMACEUTICA NV, priority 2018, dated 2024).

Experiments:
human SCD1 = target: T1, human SCD1 (Homo sapiens, UniProt O00767); assay: Yeast growth assay, strain expressing human SCD1 as the sole desaturase (reduced growth as surrogate for SCD inhibition); assay type: cell-based; settings: growth (OD600) after 40 h at 30° C.
T1 construct: expressed in transfected cells; host or cells: yeast strain with the OLE1 gene deleted, carrying a plasmid (grown in SD-Ura)
T1 sequence (O00767 1-359): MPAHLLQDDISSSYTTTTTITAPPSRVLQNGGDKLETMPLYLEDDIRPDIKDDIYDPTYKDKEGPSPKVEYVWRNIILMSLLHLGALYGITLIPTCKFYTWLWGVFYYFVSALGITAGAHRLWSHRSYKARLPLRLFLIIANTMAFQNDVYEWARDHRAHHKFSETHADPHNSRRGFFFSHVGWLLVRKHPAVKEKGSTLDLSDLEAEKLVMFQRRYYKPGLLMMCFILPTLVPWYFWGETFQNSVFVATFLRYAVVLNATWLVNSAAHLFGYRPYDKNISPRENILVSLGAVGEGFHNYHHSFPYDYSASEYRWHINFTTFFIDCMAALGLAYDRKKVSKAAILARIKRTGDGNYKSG

human SCD5 = target: T2, human SCD5 (Homo sapiens, UniProt Q86SK9); assay: Yeast growth assay, strain expressing human SCD5 as the sole desaturase (reduced growth as surrogate for SCD inhibition); assay type: cell-based; settings: growth (OD600) after 40 h at 30° C.
T2 construct: expressed in transfected cells; host or cells: yeast strain with the OLE1 gene deleted, carrying a plasmid (grown in SD-Ura)
T2 sequence (Q86SK9 1-330): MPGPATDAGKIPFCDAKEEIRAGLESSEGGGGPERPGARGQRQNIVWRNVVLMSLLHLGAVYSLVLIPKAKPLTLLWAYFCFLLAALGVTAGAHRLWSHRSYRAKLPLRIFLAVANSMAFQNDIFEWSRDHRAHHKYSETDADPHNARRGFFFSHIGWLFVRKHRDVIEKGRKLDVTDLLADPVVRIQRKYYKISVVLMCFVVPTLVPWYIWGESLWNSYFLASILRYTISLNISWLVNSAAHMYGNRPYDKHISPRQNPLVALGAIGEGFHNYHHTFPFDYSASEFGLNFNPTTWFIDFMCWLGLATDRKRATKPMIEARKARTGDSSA

Row | IC50 (human SCD1) [µM] | IC50 (human SCD5) [µM] | SMILES
1 | > 45 | 17.7 | CC1(C)CN(C(=O)c2cccc(Cc3ccc(F)cc3)n2)CCO1 [Compound 339]
2 | > 45 | > 45 | O=C(Nc1ccc(Cc2cccc(F)c2)cn1)c1cnc2[nH]c(=O)oc2c1 [Compound 463]
3 | > 45 |  | CN1N=C(c2nc3cc(Cc4cccc(Cl)c4)cnc3[nH]2)CCC1=O [Compound 255]
4 | 1.82 | 0.03 | Cc1ccc(Cc2ccc(C(=O)Nc3ccc(=O)n(C)n3)nc2)cc1C [Compound 312]
5 |  | 0.17 | Cn1cc(C(=O)Nc2ccc(COc3cccc(Cl)c3)cn2)ccc1=O [Compound 263]
6 | > 45 | > 45 | CN1N=C(C(=O)Nc2ncc(Cc3cccc(F)c3)s2)CCC1=O [Compound 221, N-(5-(3-fluorobenzyl)thiazol-2-yl)-1-methyl-6-oxo-1,4,5,6-tetrahydropyridazine-3-carboxamide]
7 | 3.1 | 0.36 | Cn1cc(C(=O)Nc2ccc(Cc3ccc(F)c(F)c3)cn2)ncc1=O [Compound 673]
8 | > 45 | > 45 | O=C(Nc1ccc(Cc2cccc(F)c2)cn1)c1cc[nH]c(=O)n1 [Compound 425]
